Reference: US6407058B1, “Modifying the permeability of physiological barriers” (Eisai Co., Limited, priority 1996, dated 2002)

Assays:
Assay type in all cases: cell-based
p100/p120 [1] = test: p100/p120 electrophoretic mobility (band shift) by immunoblotting, MDCK I cells; settings: 30 minutes
Experimental: (§1) The migration of the cellular proteins p100 and p120 during electrophoresis is increased following PDB-treatment of MDCK I cells. PDB (phorbol-12,13-dibutyrate) is a pharmacological activator of protein kinase C. MDCK I cells are a kidney derived epithelial cell line, with particularly well developed junctional complexes. Cells treated for 30 minutes with either 200 nM PDB (+) or vehicle (−) were then lysed into Laemmli sample buffer, and separated by electrophoresis using 6% acrylamide gels. Proteins were transferred to nitrocellulose and probed with antibodies to p100/p120, and then reprobed with E-cadherin and paxillin antibodies.
MDCK strain I and II cells were provided by Barry Gumbiner (memorial Sloan-Kettering Cancer Center, NY). LLC-PK1 and Caco-2 cells were obtained from the European Collection of Animal Cell Cultures. All cells were maintained at 37° C. under 5% CO2 in humidified air. MDCK strain I and II cells were maintained in MEM containing 10% FCS, 100 U/ml penicillin, 100 μg/ml streptomycin and 2 mM L-glutamine. Caco-2 cells were maintained in MEM containing 15% FCS, 1% non-essential amino acids and 1 μg/ml bovine insulin (Sigma I-6634). LLC-PK1 cells were grown in M199 (Gibco), 10% FCS, 100 U/ml penicillin, 100 μg/ml streptomycin and 2 mM L-glutamine. For whole cell lysate analysis, 10^5 cells were plated on 6.5 mm diameter, 0.4 μm, polycarbonate Transwell filters from Costar, in 0.25 ml of medium. The basolateral chamber contained 0.75 ml of medium. For immunoprecipitation, 5×10^5 cells were plated onto 24 mm Transwell filters, in 2 ml of medium, with 3 ml of medium in the lower chamber. Cells were used 4-7 days after plating. Tissue culture materials were from Gibco. Porcine brain endothelial cells were isolated and grown by modifications of a previously published procedure (Rubin et al., 1991). Brain capillary fragments were plated on dishes coated with rat tail collagen and human fibronectin. The cultures were fed every other day with growth medium composed of 50% astrocyte-conditioned medium and 50% Dulbecco's Modified Eagle Medium containing 10% plasma-derived serum, 125 μg/ml heparin, antibiotics and glutamine. They were incubated in a humidified atmosphere of 10% CO2 at 37° C. When the endothelial cells were approximately 50% confluent (after 4-6 days in culture), they were trypsinized and plated onto collagen-coated polycarbonate Transwell filters (6.5 mm diameter, 0.4 μm pore size, tissue culture treated, Costar Corp, Cambridge, Mass., U.S.A.) in the same medium (250 μl apically, 750 μl basolaterally). After 2-3 days on filters, the medium was switched to a 1:1 mixture of astrocyte-conditioned medium and a Dulbecco's Modified Eagle Medium-based, chemically defined medium (‘N2’, Rubin et al., 1991; Bottenstein and Sato, 1979). The final concentration of plasma-derived serum was 5%. Human umbilical vein endothelial cells were from Clonetics.
(§2) Whole cell lysates were prepared by rapidly replacing the culture medium in 6.5 mm with hot Laemmli sample buffer, followed by heating at 100° C. for 5 minutes. Immunoprecipitations were carried out at 4° C. Confluent monolayers of cells were washed rapidly with ice cold PBS (containing 0.9 mM CaCl2 and 0.5 mM MgCl2) before addition of 0.5 ml of the appropriate buffer. The filters were then gently scraped, and the lysate was removed and centrifuged at 14000× g. The supernatant was precleared with 10% (w/v) protein A-Sepharose in lysis buffer for 30-60 minutes. Appropriate primary antibodies were added to the lysate, and after 2-3 hours the immunecomplex was isolated, using rabbit anti-mouse secondary antibodies (Jackson Immunoresearch Labs Inc., West Grove, Pa.) and protein A-Sepharose. The beads were washed fives times with lysis buffer, and the bound protein was solubilized in SDS-sample buffer, followed by heating at 100° C. for 5 minutes.
Cell extracts or immunoprecipitates in SDS sample buffer were resolved by SDS-PAGE. […]

p100/p120 [2] = test: p100/p120 electrophoretic mobility, Caco-2 cells; settings: 200 nM PDB, 30 minutes
Experimental: p100 and p120 electrophoretic mobility is affected by PDB in a number of different epithelial cell lines. LLC-PK1, (a porcine kidney cell line), MDCK strain II cells and gut-derived Caco-2 cells were treated with or without 200 nM PDB for 30 minutes, lysed into Laemmli sample buffer, separated by electrophoresis and analysed by immunoblotting.
MDCK strain I and II cells were provided by Barry Gumbiner (memorial Sloan-Kettering Cancer Center, NY). LLC-PK1 and Caco-2 cells were obtained from the European Collection of Animal Cell Cultures. All cells were maintained at 37° C. under 5% CO2 in humidified air. MDCK strain I and II cells were maintained in MEM containing 10% FCS, 100 U/ml penicillin, 100 μg/ml streptomycin and 2 mM L-glutamine. Caco-2 cells were maintained in MEM containing 15% FCS, 1% non-essential amino acids and 1 μg/ml bovine insulin (Sigma I-6634). LLC-PK1 cells were grown in M199 (Gibco), 10% FCS, 100 U/ml penicillin, 100 μg/ml streptomycin and 2 mM L-glutamine. For whole cell lysate analysis, 10^5 cells were plated on 6.5 mm diameter, 0.4 μm, polycarbonate Transwell filters from Costar, in 0.25 ml of medium. The basolateral chamber contained 0.75 ml of medium. For immunoprecipitation, 5×10^5 cells were plated onto 24 mm Transwell filters, in 2 ml of medium, with 3 ml of medium in the lower chamber. Cells were used 4-7 days after plating. […]

[3] = system: E-cadherin-associated p100/p120; test: E-cadherin immunoprecipitation and p100/p120 immunoblotting, MDCK I cells
Description: It has been shown that although some of the p100/p120 in cells is associated with adherens junctions, there is also a large pool that is not complexed with cadherins (at least by immunoprecipitation analysis). […] This procedure served to isolate only that portion of the cellular p100/p120 that associates with the cadherins. Following electrophoresis, and transfer to nitrocellulose, the p100 and p120 present in E-cadherin immunoprecipitates were detected by immunoblotting (Example 9A). […] In both cases, p100/p120 is shown to be present at regions of cell—cell contact.
as §2
For Immunoprecipitations, Triton lysis buffer or TDS lysis buffer was used. Triton lysis buffer (pH adjusted to 7.4 using NaOH) contained 25 mM Hepes, 1% Triton X-100, 2 mM EDTA, 0.1 M NaCl, 25 mM NaF, 1 mM vanadate, and protease inhibitors. […]
Cell extracts or immunoprecipitates in SDS sample buffer were resolved by SDS-PAGE. […] The filters were then extensively washed in PBS/0.5% Tween-20, and immunoreactive bands were detected by enhanced chemiluminescence (Amersham) following the manufacturers instructions.

E-cadherin = E-cadherin electrophoretic mobility by immunoblotting, MDCK I cells; settings: 200 nM PDB, 30 minutes
Experimental: as §1
Cell extracts or immunoprecipitates in SDS sample buffer were resolved by SDS-PAGE. The slab gels were then equilibrated in buffer comprising; 48 mM Tris, 39 mM glycine, 20% methanol and 0.03% SDS. Proteins were transferred to nitrocellulose filters (Hybond ECL; Amersham), which were Ponceau S stained and then blocked for 2 hours at 37° C. with 1% BSA in PBS containing 0.05% Tween-20. Filters were then probed with p120 antibody, at a dilution of 1:2500. […] The filters were then extensively washed in PBS/0.5% Tween-20, and immunoreactive bands were detected by enhanced chemiluminescence (Amersham) following the manufacturers instructions.

SMILES: CCCC(=O)O[C@@H]1[C@@H](C)[C@@]2(O)[C@@H](C=C(CO)C[C@]3(O)C(=O)C(C)=C[C@@H]23)[C@@H]2C(C)(C)[C@]12OC(=O)CCC [PDB, Phorbol-12,13-dibutyrate]
- migration of p100 and p120 during electrophoresis (p100/p120 [1]; MDCK I cells, 200 nM PDB): migrate as faster, tighter bands
- concentration of maximal effect on p100/p120 mobility (p100/p120 [1]; MDCK I, PDB 1 to 200 nM): 100 nM
- migration of p100 and p120 (p100/p120 [2]): less striking, but still present
- phosphorylation of E-cadherin-associated p100/p120 ([3]; PDB, Triton lysis buffer, E-cadherin immunoprecipitates): is dephosphorylated
- phosphorylation of non-E-cadherin-associated p100/p120 ([3]; PDB, data not shown): subject to dephosphorylation
- amount of p100 and p120 present in E-cadherin immunoprecipitates ([3]; after addition of PDB): no obvious change
- effect on E-cadherin migration (E-cadherin): no effect
